Source: ChEMBL document CHEMBL5724914, “Linking interpersonal differences in gut microbiota composition and drug biotransformation activity” (2024)

Key:
[1] = human gut metagenome, 24 h, 2 µM
[2] = (§1) The drug is tested on Z-008 corresponding to metagenome with ENA study accession number: PRJEB37062 and ENA sample accession number: ERS12561808 for biotransformation under anaerobic condition. The drug concentrations were measured over 9 timepoints collected between 0 and 24 hours of incubation by liquid-chromatography-coupled mass spectrometry (LC–MS); details: 2 µM
[3] = human gut metagenome, 24 h, 2 µM; remark: listed apart in the source
[4] = as §1, with “Z-010” for “Z-008”, “ERS12561810” for “ERS12561808”; details: 2 µM
[5] = (§2) The drug is tested on WLS-038 corresponding to human gut metagenome with ENA study accession number: PRJEB37062 and ENA sample accession number: ERS12561745 for biotransformation under anaerobic condition. The drug concentrations were measured over 9 timepoints collected between 0 and 24 hours of incubation by liquid-chromatography-coupled mass spectrometry (LC–MS); details: 2 µM
[6] = as §1, with “Z-005” for “Z-008”, “ERS12561805” for “ERS12561808”; details: 2 µM
[7] = as §2, with “WLS-350” for “WLS-038”, “ERS12561789” for “ERS12561745”; details: 2 µM
[8] = as §2, with “Z-007” for “WLS-038”, “rat” for “human”, “ERS12561807” for “ERS12561745”; details: 2 µM
[9] = human gut metagenome, 24 h, 2 µM; remark: listed apart in the source
[10] = as §2, with “WLS-052” for “WLS-038”, “ERS12561747” for “ERS12561745”; details: 2 µM
[11] = as §1, with “Z-027” for “Z-008”, “ERS12561826” for “ERS12561808”; details: 2 µM
[12] = human gut metagenome, 24 h, 2 µM; remark: listed apart in the source
[13] = as §1, with “Z-012” for “Z-008”, “ERS12561812” for “ERS12561808”; details: 2 µM
[14] = as §2, with “Z-017” for “WLS-038”, “mouse” for “human”, “ERS12561816” for “ERS12561745”; details: 2 µM
[15] = as §2, with “Z-030” for “WLS-038”, “mouse” for “human”, “ERS12561829” for “ERS12561745”; details: 2 µM
[16] = as §2, with “WLS-077” for “WLS-038”, “ERS12561750” for “ERS12561745”; details: 2 µM
[17] = as §2, with “WLS-073” for “WLS-038”, “ERS12561749” for “ERS12561745”; details: 2 µM
[18] = human gut metagenome, 24 h, 2 µM; remark: listed apart in the source
[19] = human gut metagenome, 24 h, 2 µM; remark: listed apart in the source
[20] = human gut metagenome, 24 h, 2 µM; remark: listed apart in the source

Measured: Bacterial Biotransformation
Also: call rule not given here.

COc1ccc2c(c1OC)C(=O)O[C@@H]2[C@H]1c2c(cc3c(c2OC)OCO3)CCN1C [NOSCAPINE]
Compound metabolized: [4] | [6] | [7] | [9] | [12] | [16] | [17] | [18] | [20]
Compound NOT metabolized: all other assays above

CCCc1nc(C(C)(C)O)c(C(=O)OCc2oc(=O)oc2C)n1Cc1ccc(-c2ccccc2-c2nnn[nH]2)cc1 [OLMESARTAN MEDOXOMIL]
Compound NOT metabolized: [1] | [7] | [11] | [15] | [20]
Compound metabolized: all other assays above

NC(=O)N1c2ccccc2CC(=O)c2ccccc21 [OXCARBAZEPINE]
Compound metabolized: [4] | [6] | [7]
Compound NOT metabolized: all other assays above

CCN(CC)CC#CCOC(=O)C(O)(c1ccccc1)C1CCCCC1.Cl (stereo not given) [OXYBUTYNIN CHLORIDE]
Compound NOT metabolized: [1] | [2] | [8] | [11] | [14] | [15] | [17]
Compound metabolized: all other assays above

Fc1ccc([C@@H]2CCNC[C@H]2COc2ccc3c(c2)OCO3)cc1 [PAROXETINE]
Compound metabolized: [4] | [5] | [6] | [7] | [9] | [12] | [18] | [19] | [20]
Compound NOT metabolized: all other assays above

O=c1[nH]c2ccccc2n1C1CCN(CCCC(c2ccc(F)cc2)c2ccc(F)cc2)CC1 [PIMOZIDE]
Compound NOT metabolized: [1] | [3] | [11] | [15] | [16]
Compound metabolized: all other assays above

COc1cc2nc(N3CCN(C(=O)c4ccco4)CC3)nc(N)c2cc1OC [PRAZOSIN]
Compound metabolized: [9] | [12] | [17] | [18] | [19] | [20]
Compound NOT metabolized: all other assays above
